One assay has as its system SF767 cells. Kind of assay: Alamar Blue cell viability assay, SF767. Type of assay: cell-based. The note with it: Homo sapiens, 48 hours. As for the experimental part:
(§1) The Alamar Blue assay was used to assess viability as described previously (See Reference 29, incorporated by reference in its entirety). Briefly, 4000 cells of each population were seeded in quadruplicate wells of 96-well plastic plates in 200 μl of culture medium supplemented with 10% fetal bovine serum. Cells were treated with various conditions and the assay was developed 48 hours later. Alamar Blue was then added to the cells in a volume of 20 μl (10% of total volume) per well and the plates were incubated for 6 hours at 37° C. The plates were read on a fluorescence plate reader (excitation, 560 nm; emission, 600 nm). Averages of the fluorescence values were calculated and normalized to controls without Temozolomide.
Background: Resazurin is reduced to fluorescent resorufin, in cell work by metabolically active cells.

For another assay, the system named is T98G cells. Kind of assay: Alamar Blue cell viability assay, T98G. Type of assay: cell-based. The following applies: Homo sapiens, 48 hours. As for the experimental part:
as §1

One may read the IC50 as the concentration at which inhibition is half-maximal. The low end stands for greater potency, the high end for weaker potency. Regarding `Cn1nnc2c(C(N)=O)ncn2c1=O` [Temozolomide], the half-inhibitory concentration (IC50) with SF767 cells was 125 µM; in the assay on T98G cells, 250 µM.
